Assay results: patent US20250381165A1, “Method of Use for Benzofuran Compounds” (Tampa Bay Research Institute, Inc., priority 2024, published 2025)

Key:
[1] = test system: B16F10 cells (B3Z activation); assay: B3Z activation by B16F10 (OVA or SIINFEKL); format: cell-based, murine
Description: B16F10 were plated at a density of 2.5 or 5×10^4 cells/well (100 μL/well in 96 well plates) and cultured overnight in cDMEM. The cells were washed with DPBS and then treated for 1-24 h with the indicated concentrations of BzFβ or co-treated with the indicated concentrations of BzFβ and 1.0 mg/mL OVA, suspended in complete media. Cells treated with BzFβ only were pulsed with 2 nM SIINFEKL pulsed for 1 h. The cells were then co-cultured with equal number of B3Z cells at 37° C. for 19 h.
In this experiment the activity of the dipeptide, GL, was also examined, as it has been previously reported to function as a peptide exchange factor. (Saini, et al., Dipeptides catalyze rapid peptide exchange on MHC class I molecules. Proc Natl Acad Sci USA. 2015 Jan. 6; 112(1):202-7; Saini, et al., Empty peptide-receptive MHC class I molecules for efficient detection of antigen-specific T cells. Sci Immunol. 2019 Jul. 19; 4(37):eaau9039). B16F10 were plated at a density of 2.5 or 5×10^4 cells/well (100 μL/well in 96 well plates) and cultured overnight in cDMEM. The cells were washed with DPBS and then co-treated for 24 h with 10 mM (1.88 mg/mL) of GL and 1.0 mg/mL OVA or were pulsed with 2 nM SIINFEKL for 1 h following treatment with 10 mM GL in complete media. The cells were then co-cultured with an equal number of B3Z cells at 37° C. for 19 h.

[2] = biological target: T1, MHC class I H-2Kb tetramer (Mus musculus, UniProt P01901); assay: QuickSwitch tetramer peptide exchange assay, H-2Kb; format: biochemical, murine; conditions: p<0.001; p=0.0013
T1 construct: purchased MBL International Corporation TB-7400-K2

[3] = test system: splenocytes (B3Z activation); assay: In vivo SIINFEKL loading, splenocytes used ex vivo to activate B3Z; set-up: species or system C57BL/6NCrl mice
Description: Six- to ten-week-old male and female C57BL/6NCrl mice (Charles River Laboratories, Wilmington MA; cat. no. 027) were used for all animal studies. The mice were maintained in accord with the NIH Guide for the Care and Use of Laboratory Animals. Experimental procedures were performed in accord with research protocols approved by the Tampa Bay Research Institute's Institutional Animal Care and Use Committee. Mice were maintained in an INOVIVE individually ventilated cage system with 3 mice per cage containing 100% virgin wood pulp bedding (Harlan Teklad™, Harlan Sprague Dawley Inc., Indianapolis, IA; cat. n.o 7099). Water and food (Harlan Teklad™; cat. no. 8640) were available ad libitum. The mice were maintained on a cycle of 12 h of light and 12 h of dark in an environment with a temperature of 74-76° […]. and 40-60% humidity. All cages underwent 40 air changes hourly in the negative pressure mode, in accordance with manufacturer's recommendations. Both the intake and exhaust air from the system were filtered through HEPA filters to maintain a clean environment. Stock solutions of BzFβ were solubilized in alkaline water (pH 10) and then sterile filtered through 0.22 µm syringe filters. BzFβ used for iv or im injections was diluted in 0.9% saline (normal saline). The stock solutions of the SIINFEKL peptide were prepared in 1× calcium/magnesium free Dulbecco's phosphate-buffered saline (DPBS; ThermoFisher Scientific, cat. no. 14190144).
Since the oral route of drug delivery is preferred, various doses of BzFβ (1, 2, 4 mg) were administered by oral gavage, immediately following an iv injection of 50 μg SIINFEKL peptide. One-hour post-treatment the blood and spleens from each mouse was collected. […] The cell count was determined using the MUSE cell viability kit (MCH600103) and MUSE Cell Analyzer (Luminex Corp, Austin TX).
One hour later the splenocytes were isolated and immediately tested for peptide loading or used to activate B3Z cells. […] The colorimetric response was allowed to develop for 15-240 min and the OD 560 nm was measured at various time points using a Synergy HTX plate reader. […]

T1 sequence (P01901 22-295 limits assumed): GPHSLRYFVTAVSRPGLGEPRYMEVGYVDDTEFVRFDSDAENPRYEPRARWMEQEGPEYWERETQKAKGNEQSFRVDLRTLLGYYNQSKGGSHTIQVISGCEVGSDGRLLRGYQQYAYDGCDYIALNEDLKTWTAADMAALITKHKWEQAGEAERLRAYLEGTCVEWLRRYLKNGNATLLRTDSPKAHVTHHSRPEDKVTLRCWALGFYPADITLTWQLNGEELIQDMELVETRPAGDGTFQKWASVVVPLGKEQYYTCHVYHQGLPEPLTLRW
T1 sequence (P61769 21-119 partner): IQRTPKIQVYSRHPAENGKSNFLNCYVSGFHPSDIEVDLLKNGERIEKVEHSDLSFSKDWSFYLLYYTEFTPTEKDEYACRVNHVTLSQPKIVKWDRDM

O=C(O)/C=C/c1ccc2occc2c1 [BzFβ, (2E)-3-(1-benzofuran-5-yl)prop-2-enoic acid]
B3Z activation by B16F10, OVA ([1]; co-treatment with 1 mg/mL OVA, GL at 10 mM): failed to activate the B3Z cells
B3Z activation by B16F10, SIINFEKL ([1]; pre-treatment, 1 h pulse 2 nM SIINFEKL, BzFβ 25, 50 μg, GL 10 mM): significantly activate B3Z
displacing pre-bound peptide versus no exchange factor or provided exchange molecule [2]: significantly better
ability of splenocytes to activate B3Z, three routes ([3]; gavage 1 mg, iv 50 μg or im 100 μg after iv 50 μg SIINFEKL, 1 h): successful at enhancing the ability of the splenocytes to activate B3Z
B3Z response, comparison of routes ([3]; iv 50 μg BzFβ): greatest response
B3Z response to splenocytes versus peptide alone ([3]; oral gavage 1, 2, 4 mg after iv 50 μg SIINFEKL, 1 h): significantly greater response
